Reference: patent US20230382924A1, “MODULATORS OF CYSTIC FIBROSIS TRANSMEMBRANE CONDUCTANCE REGULATOR” (VERTEX PHARMACEUTICALS INCORPORATED, priority 2020, published 2023)
Read-outs that look alike come from different tables or passages of the source.

Target: CFTR (Homo sapiens, UniProt P13569)
Experiment: Membrane Potential Dye, Enteroid Assay A
Format: cell-based
Details: for EC50: read-out: Ent. A EC50
Summary of the method: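 Signal is reported as % Activity relative to a triple CFTR modulator control (3 μM + 3 μM + 300 nM acute). Read-out: membrane potential fluorescence (20 μM methyl oxonol) monitored for 15 min after chloride-free stimulation. Dye loading took 25 min at room temperature in Bath 1 buffer containing CaCC blockers.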

CFTR, sequence (P13569 with tags, fused parts or gaps DEL508-508): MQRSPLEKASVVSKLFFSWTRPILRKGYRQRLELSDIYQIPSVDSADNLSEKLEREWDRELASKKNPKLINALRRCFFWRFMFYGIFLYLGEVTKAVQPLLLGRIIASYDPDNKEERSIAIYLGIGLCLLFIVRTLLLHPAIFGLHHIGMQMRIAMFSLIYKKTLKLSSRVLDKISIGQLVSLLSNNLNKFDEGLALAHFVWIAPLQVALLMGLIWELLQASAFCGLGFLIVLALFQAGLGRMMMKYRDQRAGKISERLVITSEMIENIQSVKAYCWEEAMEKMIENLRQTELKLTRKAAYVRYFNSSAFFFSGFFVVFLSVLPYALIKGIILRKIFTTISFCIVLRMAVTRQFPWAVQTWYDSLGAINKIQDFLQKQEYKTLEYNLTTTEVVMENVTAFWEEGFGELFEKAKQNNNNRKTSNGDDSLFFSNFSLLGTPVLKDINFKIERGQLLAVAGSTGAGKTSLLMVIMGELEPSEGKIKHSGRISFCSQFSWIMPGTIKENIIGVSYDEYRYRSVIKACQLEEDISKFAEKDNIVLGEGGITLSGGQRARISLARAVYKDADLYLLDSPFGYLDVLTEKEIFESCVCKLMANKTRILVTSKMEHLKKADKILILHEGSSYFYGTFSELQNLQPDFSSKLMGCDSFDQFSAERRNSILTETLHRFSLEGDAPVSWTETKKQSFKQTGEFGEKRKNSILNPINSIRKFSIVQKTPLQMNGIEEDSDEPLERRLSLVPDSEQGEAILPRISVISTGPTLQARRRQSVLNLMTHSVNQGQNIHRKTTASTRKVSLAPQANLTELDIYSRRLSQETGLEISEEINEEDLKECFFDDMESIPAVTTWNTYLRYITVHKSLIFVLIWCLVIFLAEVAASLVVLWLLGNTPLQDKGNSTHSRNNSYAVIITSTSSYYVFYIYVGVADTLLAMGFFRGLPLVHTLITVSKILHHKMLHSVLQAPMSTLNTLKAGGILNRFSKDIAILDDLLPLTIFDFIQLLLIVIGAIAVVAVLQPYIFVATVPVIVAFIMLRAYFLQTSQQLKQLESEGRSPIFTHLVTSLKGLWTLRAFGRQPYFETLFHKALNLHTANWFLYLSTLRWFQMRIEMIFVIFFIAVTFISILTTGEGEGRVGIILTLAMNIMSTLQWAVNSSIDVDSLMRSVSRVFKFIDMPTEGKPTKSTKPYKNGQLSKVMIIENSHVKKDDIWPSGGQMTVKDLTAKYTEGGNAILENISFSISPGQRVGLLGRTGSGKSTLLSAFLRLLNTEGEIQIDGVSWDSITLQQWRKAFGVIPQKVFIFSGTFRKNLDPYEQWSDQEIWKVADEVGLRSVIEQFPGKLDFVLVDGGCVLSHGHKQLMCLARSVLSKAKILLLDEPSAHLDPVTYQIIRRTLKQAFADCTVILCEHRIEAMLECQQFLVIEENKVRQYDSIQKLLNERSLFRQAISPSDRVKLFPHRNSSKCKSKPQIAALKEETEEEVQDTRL

Row | SMILES | Ent. A Max Activity (Table 9) | EC50 (Table 9) | Ent. A Max Activity (Table 8) | other results
1 | CC(C)C[C@@H]1COc2cc(-c3ccccc3C3CC3)nc(n2)NS(=O)(=O)c2cccc(c2)C(=O)N1 [Compound 105, (11R)-6-(2-cyclopropylphenyl)-11-(2-methylpropyl)-9-oxa-2λ^6-thia-3,5,12,19-tetraazatricyclo[12.3.1.14,8]nonadeca-1(17),4(19),5,7,14(18),15-hexaene-2,2,13-trione] | – | – | – | Ent. A Max Activity (Enteroid Assay A): +++ (+++ is >600%); EC50 (Enteroid Assay A): < 1000 nM
2 | Cc1cccnc1-c1cc2nc(n1)NS(=O)(=O)c1cccc(c1)C(=O)N[C@H](CC(C)C)CO2 [Compound 108, (11R)-11-Isobutyl-6-(3-methyl-2-pyridyl)-2,2-dioxo-9-oxa-2λ^6-thia-3,5,12,19-tetrazatricyclo[12.3.1.14,8]nonadeca-1(18),4(19),5,7,14,16-hexaen-13-one] | ++ (++ is 30-60%) | 3000 to 30000 nM | – | –
3 | Cc1cc(C(F)(F)F)n(-c2cc3nc(n2)NS(=O)(=O)c2cccc(c2)C(=O)N[C@H](CC(C)C)CO3)n1 [Compound 109, (11R)-6-[3-methyl-5-(trifluoromethyl)-1H-pyrazol-1-yl]-11-(2-methylpropyl)-9-oxa-2λ^6-thia-3,5,12,19-tetraazatricyclo[12.3.1.14,8]nonadeca-1(17),4,6,8(19),14(18),15-hexaene-2,2,13-trione] | – | – | + (+ is <30%) | EC50 (Table 8): < 1000 nM
4 | Cc1cccc(C)c1-c1cc2nc(n1)NS(=O)(=O)c1cccc(c1)C(=O)N[C@H](C(C)C)CO2 [Compound 112, (11R)-6-(2,6-Dimethylphenyl)-11-(propan-2-yl)-9-oxa-2λ^6-thia-3,5,12,19-tetraazatricyclo[12.3.1.14,8]nonadeca-1(17),4,6,8(19),14(18),15-hexaene-2,2,13-trione] | – | – | – | Ent. A Max Activity (Enteroid Assay A): +++ (+++ is >600%); EC50 (Enteroid Assay A): < 1000 nM
5 | Cc1cccc(C)c1-c1cc2nc(n1)NS(=O)(=O)c1cccc(c1)C(=O)NCC(c1ccc3c(c1)OCCO3)O2 (centres unmarked) [Compound 116] | – | – | +++ (+++ is >60%) | EC50 (Table 8): < 1000 nM
6 | Cc1cccc(C)c1-c1cc2nc(n1)NS(=O)(=O)c1cccc(c1)C(=O)NCC(c1ccc3c(c1)C(C)(C)CCC3(C)C)O2 (centres unmarked) [Compound 117] | – | – | +++ (+++ is >60%) | EC50 (Table 8): < 1000 nM
7 | Cc1cc(C2CNC(=O)c3cccc(c3)S(=O)(=O)Nc3nc(cc(-c4c(C)cccc4C)n3)O2)cc2c1OC(C)(C)C2 (centres unmarked) [Compound 119] | – | – | + (+ is <30%) | –
8 | COCCOc1ccc(C2CNC(=O)c3cccc(c3)S(=O)(=O)Nc3nc(cc(-c4c(C)cccc4C)n3)O2)cc1 (centres unmarked) [Compound 120] | – | – | + (+ is <30%) | –
9 | Cc1cccc(C)c1-c1cc2nc(n1)NS(=O)(=O)c1cccc(c1)C(=O)NCC(c1ccc(CC[Si](C)(C)C)cc1)O2 (centres unmarked) [Compound 127] | – | < 1000 nM | – | –
10 | Cc1cccc(C)c1-c1cc2nc(n1)NS(=O)(=O)c1cccc(c1)C(=O)NCC(c1ccc(C[Si](C)(C)C)cc1)O2 (centres unmarked) [Compound 128] | – | < 1000 nM | – | –
11 | Cc1cccc(C)c1-c1cc2nc(n1)NS(=O)(=O)c1cccc(c1)C(=O)N[C@@H](CC(C)(C)C)[C@H](C)O2 [Compound 130] | +++ (+++ is >60%) | < 1000 nM | – | –
12 | Cc1cccc(C)c1-c1cc2nc(n1)NS(=O)(=O)c1cccc(c1)C(=O)N[C@H](CC1CCCCC1)[C@@H](C1CC1)O2 [Compound 131] | +++ (+++ is >60%) | < 1000 nM | – | –
13 | CC[C@H]1NC(=O)c2cccc(c2)S(=O)(=O)Nc2nc(cc(-c3c(C)cccc3C)n2)O[C@H]1c1ccc(C(C)(C)C)cc1 [Compound 132] | +++ (+++ is >60%) | < 1000 nM | – | –
14 | CC[C@H]1NC(=O)c2cccc(c2)S(=O)(=O)Nc2nc(cc(-c3c(C)cccc3C)n2)O[C@@H]1c1ccc(C(C)(C)C)cc1 [Compound 133] | +++ (+++ is >60%) | < 1000 nM | – | –
15 | Cc1cccc(C)c1-c1cc2nc(n1)NS(=O)(=O)c1cccc(c1)C(=O)N[C@H](C)[C@H](c1ccc(C(C)(C)C)cc1)O2 [Compound 134] | – | – | + (+ is <30%) | EC50 (Table 8): < 1000 nM
16 | Cc1cccc(C)c1-c1cc2nc(n1)NS(=O)(=O)c1cc(cc(-c3ccc(C(C)(C)C)cc3)c1)C(=O)N[C@H](CC(C)C)CO2 [Compound 135] | – | – | + (+ is <30%) | –
17 | Cc1cccc(C)c1-c1cc2nc(n1)NS(=O)(=O)c1cc(cc(C3CC3)c1)C(=O)N[C@H](CC(C)C)CO2 [Compound 136] | – | – | + (+ is <30%) | –
18 | Cc1cccc(C)c1-c1cc2nc(n1)NS(=O)(=O)c1cc(cc(C3CCCCC3)c1)C(=O)N[C@H](CC(C)C)CO2 [Compound 137] | – | – | + (+ is <30%) | –
19 | Cc1cccc(C)c1-c1cc2nc(n1)NS(=O)(=O)c1cc(cc(C3CCOCC3)c1)C(=O)N[C@H](CC(C)C)CO2 [Compound 138] | – | – | + (+ is <30%) | –
20 | Cc1cccc(C)c1-c1cc2nc(n1)NS(=O)(=O)c1cc(cc(C3=CCCCC3)c1)C(=O)N[C@H](CC(C)C)CO2 [Compound 139] | – | – | + (+ is <30%) | –
21 | Cc1cccc(C)c1-c1cc2nc(n1)NS(=O)(=O)c1cccc(c1)C(=O)N[C@H](CC1CCCCC1)[C@@H](C)O2 [Compound 144] | – | – | +++ (+++ is >60%) | EC50 (Table 8): < 1000 nM
22 | Cc1cccc(C)c1-c1cc2nc(n1)NS(=O)(=O)c1cccc(c1)C(=O)NC[C@@H](c1ccc(CCC3(C(F)(F)F)CC3)cc1)O2 [Compound 145] | ++ (++ is 30-60%) | < 1000 nM | – | –
23 | Cc1cccc(C)c1-c1cc2nc(n1)NS(=O)(=O)c1cccc(c1)C(=O)NCC(c1ccc(CC3(C(F)(F)F)CC3)cc1)O2 (centres unmarked) [Compound 147] | +++ (+++ is >60%) | < 1000 nM | – | –
24 | Cc1cccc(C)c1-c1cc2nc(n1)NS(=O)(=O)c1cccc(c1)C(=O)NCC(c1ccc(C(C)(C)C#N)cc1)O2 (centres unmarked) [Compound 152] | – | – | + (+ is <30%) | –
25 | CCC(C)(C)c1ccc(C2CNC(=O)c3cccc(c3)S(=O)(=O)Nc3nc(cc(-c4c(C)cccc4C)n3)O2)cc1 (centres unmarked) [Compound 153] | – | – | + (+ is <30%) | EC50 (Table 8): 3000 to 30000 nM
26 | Cc1ccccc1[C@@H]1Oc2cc(-c3c(C)cccc3C)nc(n2)NS(=O)(=O)c2cccc(c2)C(=O)N[C@@H]1CC(C)C [Compound 162] | – | – | – | EC50 (Enteroid Assay A): < 1000 nM
27 | Cc1cccc(C)c1-c1cc2nc(n1)NS(=O)(=O)c1cccc(c1)C(=O)NC1CC(CN(CCC3(C(F)(F)F)CC3)C1)O2 (centres unmarked) [Compound 194] | – | – | – | EC50 (Enteroid Assay A): 1000 to 3000 nM
28 | Cc1cccc(C)c1-c1cc2nc(n1)NS(=O)(=O)c1cccc(c1)C(=O)NC1CC(CN(CCC(C)(C)C3CC3)C1)O2 (centres unmarked) [Compound 195] | – | – | – | EC50 (Enteroid Assay A): < 1000 nM
29 | Cc1cccc(C)c1-c1cc2nc(n1)NS(=O)(=O)c1cccc(c1)C(=O)NCc1cccc(c1)O2 [Compound 197] | – | – | – | Ent. A Max Activity (Enteroid Assay A): ++ (++ is 30-60%); EC50 (Enteroid Assay A): 3000 to 30000 nM
30 | Cc1cccc(C)c1-c1cc2nc(n1)NS(=O)(=O)c1cccc(c1)C(=O)NC1CC(CN(C(=O)OCc3ccccc3)C1)O2 (centres unmarked) [Compound 200] | – | – | – | Ent. A Max Activity (Enteroid Assay A): ++ (++ is 30-60%); EC50 (Enteroid Assay A): 3000 to 30000 nM

More lines, main results first:

Row | Ent. A Max Activity (Table 9) | EC50 (Table 9) | Ent. A Max Activity (Table 8) | SMILES | other results
31 | – | – | +++ (+++ is >60%) | Cc1cccc(C)c1-c1cc2nc(n1)NS(=O)(=O)c1cccc(c1)C(=O)N[C@H](CC1CCCCC1)[C@@H](c1ccc(C(C)(C)C)cc1)O2 [Compound 154] | EC50 (Table 8): < 1000 nM
32 | – | – | +++ (+++ is >60%) | Cc1cc(C(C)(C)C)ccc1C1CNC(=O)c2cccc(c2)S(=O)(=O)Nc2nc(cc(-c3c(C)cccc3C)n2)O1 (centres unmarked) [Compound 157] | EC50 (Table 8): < 1000 nM
33 | – | – | +++ (+++ is >60%) | COc1cccc(C2CNC(=O)c3cccc(c3)S(=O)(=O)Nc3nc(cc(-c4c(C)cccc4C)n3)O2)c1 (centres unmarked) [Compound 158] | EC50 (Table 8): < 1000 nM
34 | +++ (+++ is >60%) | < 1000 nM | – | COc1cc(Cc2cccc(C)c2-c2cc3nc(n2)NS(=O)(=O)c2cccc(c2)C(=O)N[C@H](CC(C)C)CO3)cc(OC)c1 [Compound 167] | –
35 | +++ (+++ is >60%) | < 1000 nM | – | Cc1cccc(Cc2ccccc2)c1-c1cc2nc(n1)NS(=O)(=O)c1cccc(c1)C(=O)N[C@H](CC(C)C)CO2 [Compound 168] | –
36 | – | – | + (+ is <30%) | Cc1cccc(C)c1-c1cc2nc(n1)NS(=O)(=O)c1cccc(c1)C(=O)NC(C(F)(F)F)CO2 (centres unmarked) [Compound 171] | –
37 | +++ (+++ is >60%) | 1000 to 3000 nM | – | Cc1cccc(C)c1-c1cc2nc(n1)NS(=O)(=O)c1cccc(c1)C(=O)NC1(CCN(C3CC4(CC4)C3)CC1)CO2 [Compound 174] | –
38 | + (+ is <30%) | 3000 to 30000 nM | – | Cc1cccc(C)c1-c1cc2nc(n1)NS(=O)(=O)c1cccc(c1)C(=O)NC1(CCN(C(C)C)CC1)CO2 [Compound 175] | –
39 | +++ (+++ is >60%) | < 1000 nM | – | Cc1cccc(C)c1-c1cc2nc(n1)NS(=O)(=O)c1cccc(c1)C(=O)NC(C)(CC(C)C)CO2 (centres unmarked) [Compound 176] | –
40 | + (+ is <30%) | – | – | CC(C)C[C@@H]1COc2cc(-c3ncccn3)nc(n2)NS(=O)(=O)c2cccc(c2)C(=O)N1 [Compound 178] | –
41 | ++ (++ is 30-60%) | 3000 to 30000 nM | – | Cc1cnn(C)c1-c1cc2nc(n1)NS(=O)(=O)c1cccc(c1)C(=O)N[C@H](CC(C)C)CO2 [Compound 179] | –
42 | +++ (+++ is >60%) | < 1000 nM | – | CCCC1(CCC)COc2cc(-c3c(C)cccc3C)nc(n2)NS(=O)(=O)c2cccc(c2)C(=O)N1 [Compound 184] | –
43 | +++ (+++ is >60%) | < 1000 nM | – | CCCCC1(CCCC)COc2cc(-c3c(C)cccc3C)nc(n2)NS(=O)(=O)c2cccc(c2)C(=O)N1 [Compound 185] | –
44 | – | – | +++ (+++ is >60%) | Cc1cccc(C)c1-c1cc2nc(n1)NS(=O)(=O)c1cccc(c1)C(=O)NC(CCC1CCOCC1)CO2 (centres unmarked) [Compound 186] | EC50 (Table 8): 3000 to 30000 nM
45 | – | – | +++ (+++ is >60%) | Cc1cccc(C)c1-c1cc2nc(n1)NS(=O)(=O)c1cccc(c1)C(=O)N[C@H](CC1CCC(F)(F)CC1)CO2 [Compound 187] | EC50 (Table 8): < 1000 nM
46 | – | – | +++ (+++ is >60%) | Cc1cccc(C)c1-c1cc2nc(n1)NS(=O)(=O)c1cccc(c1)C(=O)NC(CC1CCCC1)CO2 (centres unmarked) [Compound 188] | EC50 (Table 8): < 1000 nM
